In a melting point compilation (Tetko et al.):

CSc1nc(N)c(C(C)=O)s1
melting point: 159 to 160 °C

CCCC(=O)c1ccc(F)cc1
melting point: 37 °C

Brc1cccs1
melting point: -10 °C

N#CC(C(=O)OCc1ccccc1)c1cc(C(F)(F)F)ccc1[N+](=O)[O-] (centres undefined)
melting point: 71 °C

O=C(Nc1cccnc1Cl)c1ccc(Cl)cc1Cl
melting point: 148 to 150 °C

CCc1ccc(N2C(=O)C=CC2=O)cc1
melting point: 66 °C

O=C(NC1CCN(Cc2ccccc2)C1)C(F)(F)F (centres undefined)
melting point: 71 °C

CC12CCC(C(C(=O)c3ccccc3)C1=O)C2(C)C (centres undefined)
melting point: 98 °C

O=[N+]([O-])c1ccc(Br)c(C(F)(F)F)c1
melting point: 43 °C

O=Cc1cn2ccccc2n1
melting point: 78 to 79 °C

O=C(CBr)c1ccc(-c2ccsc2)cc1
melting point: 113 to 115 °C

Cn1c(/C(C#N)=C/c2ccc(F)cc2)nc2ccccc21
melting point: 133 °C

ClC=CBr
melting point: -86.7 °C

CC(=O)Nc1ccc(OC(=O)c2ccccc2OC(C)=O)cc1
melting point: 175 °C

Nc1ccc([N+](=O)[O-])cc1C(=O)O
melting point: 278 °C

CSC(=Nc1nnc(-c2ccc([N+](=O)[O-])cc2)s1)SC
melting point: > 250 °C

NCCCNCCNCCCN
melting point: -1.5 °C

O=Cc1ccc2cccc(O)c2n1
melting point: 96 to 100 °C

Cn1ccc2c(C#N)cccc21
melting point: 41 to 43 °C

Cc1ccccc1NC(=S)NN
melting point: 147 °C

COC(=O)C1=NC(C)(C)[N+]([O-])=C1
melting point: 80 to 83 °C

CC(O)CC(C)(C)O (centres undefined)
melting point: -40 °C

Cc1ccc([N+](=O)[O-])c(N)c1C
melting point: 117 to 122 °C

Fc1c(F)c(F)c(P(c2ccccc2)c2c(F)c(F)c(F)c(F)c2F)c(F)c1F
melting point: 61.5 °C

O=C(c1ccccc1)c1ccc(F)c(C(F)(F)F)c1
melting point: 46 °C

CC(=O)C=Cc1ccc(C=CC(C)=O)cc1
melting point: 163 °C

O=C1c2ccccc2CC2C=Cc3ccccc3N12 (centres undefined)
melting point: 91 °C

O=C(O)CN1CSC(=S)N(Cc2ccccc2)C1
melting point: 152 °C

Cn1c(=O)c2c(ncn2CC2OCCO2)n(C)c1=O
melting point: 144 °C

Cc1cc(C)c(C2(C)CC(C(=O)c3cc4ccccc4o3)C2)c(C)c1 (centres undefined)
melting point: 147 to 148 °C

CC(=O)Oc1ccccc1
melting point: -30 °C

Cc1ccc(F)c(O)c1Cl
melting point: 49 °C

CC(=O)OC1CCC2(C)C(CC(=O)C3C2CCC2(C)C(OC(=O)c4ccccc4)CCC32)C1 (centres undefined)
melting point: 175 °C

CCCCCCCCCC(=O)c1ccccc1
melting point: 34 to 38 °C

O=C(OCc1ccc(Cl)cc1)c1cnc(Cl)nc1C(F)(F)F
melting point: 69 to 71 °C

CCCc1c(C(=O)O)cnn1-c1cc(Cl)cc(Cl)c1
melting point: 169 to 171 °C

O=c1nc2ccccc2nc(C(F)(F)F)c1NNc1cccnc1
melting point: 157 °C

CC(C)(O)c1ccc(-c2ccccc2)cc1
melting point: 91.5 °C

CNC(C)=CC(=O)OC
melting point: 62 to 68 °C

COc1cc(C2Nn3c(nnc3-c3ccccc3)S2)ccc1O (centres undefined)
melting point: 149 °C

Nc1ccncc1Cl
melting point: 51 °C

ClCc1cc(-c2cccs2)on1
melting point: 32 to 34 °C

COc1ccc(C=NN=Cc2ccc(OC)cc2)cc1
melting point: 167 to 168 °C

NNC(=O)c1ccc(Cl)c(Cl)c1
melting point: 154 to 160 °C

CC(C)(C)c1ccc(OC(=O)c2ccccc2O)cc1
melting point: 62 °C

CN(C)C(=O)COC1CCN(C(=O)OC(C)(C)C)CC1
melting point: 58 °C

COC(=O)c1ccc(N2CCN(C(=O)OC(C)(C)C)CC2)cc1
melting point: 166 to 167 °C

Nc1ccc(S(=O)(=O)NC(=O)c2ccccc2)cc1
melting point: 182 °C

O=Cc1cc(F)ccc1[N+](=O)[O-]
melting point: 94.5 °C

Cc1csc(-c2cn(C(C)C)c(=O)n(CC(=O)NN)c2=O)n1
melting point: 260 to 263 °C

O=C(NC(Cc1ccsc1)C(=O)O)OCC1c2ccccc2-c2ccccc21 (centres undefined)
melting point: 188 °C

O=C(O)c1nc(O)n(-c2ccccc2)n1
melting point: 180 °C

Oc1ccc(Cl)c2ccccc12
melting point: 117 to 120 °C

CC(CO)NC(=O)OC(C)(C)C (centres undefined)
melting point: 60 °C

Cc1cc(C)c(C#N)c(O)n1
melting point: 285 to 287 °C

OCC(F)(F)C(F)(F)C(F)(F)C(F)(F)C(F)(F)C(F)(F)CO
melting point: 80 to 83 °C

NC(=NO)c1ccc2ccccc2c1
melting point: 150 to 151 °C

CC(C)C1CCCCC1=O (centres undefined)
melting point: 72.5 °C

O=C(c1ccc2ccccc2c1)c1noc(-c2ccc(Br)cc2)c1S(=O)(=O)c1ccccc1
melting point: 173 °C

CC12CCC3C(CCC4=CC(=O)C=CC43O)C1CCC2=O (centres undefined)
melting point: 219 to 221 °C

CN1CCOc2cc(C#N)cnc21
melting point: 107 to 109 °C

CC(C)(C)C(=O)OCC(=O)C1(O)CCC2C3CCC4=CC(=O)C=CC4(C)C3C(O)CC21C (centres undefined)
melting point: 233 °C

CSc1ncc(Cl)c(C(=O)O)n1
melting point: 200 °C

Cc1nc([N+](=O)[O-])cn1-c1ccc([N+](=O)[O-])cc1
melting point: 186 °C

CC1NC(C(=O)O)C(C)(C)S1 (mixture of isomers)
melting point: 166 to 168 °C

CCCCCCC(=O)OC(=O)CCCCCC
melting point: -12 °C

c1ccc(-c2nsc(N3CCCNCC3)n2)cc1
melting point: 82 to 83 °C

CC(C)NCC(O)c1ccc(O)c(O)c1 (centres undefined)
melting point: 170 °C

O=C(O)C1=CCCCC1
melting point: 38 °C

Nc1ccc2c(c1)C(=O)c1ccc(N)cc1C2=O
melting point: 325 °C

ON=Cc1ccccc1O
melting point: 56 to 59 °C

CCCCC(=O)OC(=O)CCCC
melting point: -56.1 °C

COc1c(C(C)(C)C(C)C)c2nc3ccccc3nc2c2ccccc12
melting point: 88.6 °C

N#CC(O)c1ccccc1 (centres undefined)
melting point: -10 °C

C=Cc1ccccc1CC
melting point: -75.5 °C

Nc1c(O)cccc1C(=O)O
melting point: 240 °C

C1C2CC3CC1CC(C2)C3
melting point: 267 °C

Cc1c(O)cccc1C(=O)O
melting point: 144 °C

Cc1cc(C)c(Br)c(C)c1Br
melting point: 65.5 °C

NC(=O)Cc1nc(-c2ccc(F)cc2)cs1
melting point: 182 °C

O=C(O)c1ccc(-c2ccccc2)nc1
melting point: 243 to 245 °C

C=CCOc1ccc(NC(C)=O)cc1
melting point: 90 to 92 °C

Cc1nc(-c2ccccc2)c(C=O)s1
melting point: 72 to 75 °C

COC(=O)c1ccccn1
melting point: 18.7 °C

CCOC(=O)C1=C(c2ccccc2)NC(=O)NC1c1ccccc1 (centres undefined)
melting point: 172 °C

COc1ccc(C(=O)CCl)cc1
melting point: 98 to 100 °C

CC(=O)OC1CCC2C3CCC4=CC(O)CCC4(C)C3CCC12C (centres undefined)
melting point: 96 °C

CSc1ncc(C=O)n1Cc1ccccc1
melting point: 86 to 88 °C

CCCCCCCCCCCCCCCCCC[Si](OC)(OC)OC
melting point: 15 °C

CC1=Nc2ccccc2Nc2c1c(=O)n(-c1ccccc1)c1ccccc21
melting point: 297 to 299 °C

COC(=O)c1cccc(CBr)c1
melting point: 44 °C

CC(C)(C)c1cc(S)cc(C(C)(C)C)c1O
melting point: 76 °C

CSc1nc2cc([N+](=O)[O-])ccc2[nH]1
melting point: 211 to 212 °C

Cc1cc(C)cc(OCC2CNC(=O)O2)c1 (centres undefined)
melting point: 122 °C
